Reference: PubChem BioAssay (NCI)
Where “and” joins values, the source holds several entries; their conditions need not be identical. Equal values may be shown once.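 Briefly, cells in 96-well plates were exposed to five compound concentrations for 48 h, and endpoints were estimated by linear interpolation. GI50: concentration for 50% inhibition of growth. At the TGI there is no net growth.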

Legend:
Test in all cases: growth of human tumour cells (NCI), 48 h
NCI/ADR-RES ovarian = system: NCI/ADR-RES ovarian
SK-MEL-28 melanoma = system: SK-MEL-28 melanoma
SK-OV-3 ovarian = system: SK-OV-3 ovarian
SR leukemia = system: SR leukemia
M14 melanoma = system: M14 melanoma
MCF7 breast = system: MCF7 breast
COLO 205 colon = system: COLO 205 colon
K-562 leukemia = system: K-562 leukemia
NCI-H522 lung = system: NCI-H522 lung
A549 NSCLC = system: A549 NSCLC

| Compound | TGI (NCI/ADR-RES ovarian) [µM] | GI50 (SK-MEL-28 melanoma) [µM] | TGI (SK-MEL-28 melanoma) | GI50 (SK-OV-3 ovarian) [µM] | TGI (SR leukemia) [µM] | TGI (M14 melanoma) | TGI (MCF7 breast) [µM] | GI50 (COLO 205 colon) [µM] | TGI (COLO 205 colon) | GI50 (K-562 leukemia) [µM] | TGI (K-562 leukemia) | GI50 (NCI-H522 lung) [µM] | TGI (NCI-H522 lung) | TGI (A549 NSCLC) [µM] | TGI (SK-OV-3 ovarian) [µM] | GI50 (SR leukemia) [µM] | GI50 (M14 melanoma) [µM] | GI50 (A549 NSCLC) [µM] |
| --- | --- | --- | --- | --- | --- | --- | --- | --- | --- | --- | --- | --- | --- | --- | --- | --- | --- | --- |
| NC(CS)C(=O)NCCNc1ccc(NCCNC(=O)C(N)CS)c2c1C(=O)c1c(O)ccc(O)c1C2=O (stereo not given) | 1.03 | 0.43 | 2 µM and 1.81 µM | 0.0165 | 0.232 | 1.28 µM and 1.1 µM | 1.21 | 0.136 | 1.83 µM and 1.12 µM | 0.0192 | 0.614 µM and 0.145 µM | 0.0165 | 0.421 µM and 0.127 µM | 0.191 |  |  |  |  |
| CC1(C)OC2OC(C(=O)c3ccccc3)C3OC(C)(C)OC3C2O1 (stereo not given) | > 100 |  |  |  | > 100 | > 100 µM | > 100 |  | > 100 µM |  | > 100 µM |  | > 100 µM |  | > 100 |  |  |  |
| CN(C)C1(c2cc3ccccc3s2)CCCCC1 | > 100 |  |  |  | 46.5 | 35.7 µM | > 100 |  | > 100 µM |  | 65.8 µM |  | 41.7 µM | > 100 | > 100 |  |  |  |
| COc1ccc2nc3c([N+](=O)[O-])ccc(NCCCN(C)C)c3c(N)c2c1 | 4.25 |  | 3.04 µM |  | 4.23 | 3.61 µM | 2.5 |  | 2.29 µM |  | 1.41 µM |  | 1.34 µM | 3.15 | 3.01 |  |  |  |
| CCOC(=O)c1cc([N+](=O)[O-])cc([N+](=O)[O-])c1Sc1ncnc2nc[nH]c12 | 8.4 |  | 11.2 µM |  | > 100 | 2.66 µM | 4.08 |  | 5.03 µM |  | > 100 µM |  | 4.39 µM | 32.5 | 23.3 |  |  |  |
| N#CCN1CCCN(CC#N)CCN(CC#N)CCCN(CC#N)CC1 | > 100 |  | > 100 µM |  | > 100 | > 100 µM | > 100 |  | > 100 µM |  | > 100 µM |  | > 100 µM | > 100 | > 100 |  |  |  |
| Nc1nc(N)c2nc(CNc3ccc(C(=O)NC(CCNC(=O)c4ccccc4C(=O)O)C(=O)O)cc3)cnc2n1 (stereo not given) | > 100 |  | > 100 µM |  | > 100 | > 100 µM | > 100 |  | > 100 µM |  | > 100 µM |  | > 100 µM | > 100 | > 100 | 0.00433 | 0.0737 | 0.0688 |
| N#CC(C#N)C1CN2CCC1CC2 (stereo not given) | > 100 |  | > 100 µM |  | > 100 | > 100 µM | > 100 |  | > 100 µM |  | > 100 µM |  | > 100 µM | > 100 | > 100 |  |  |  |
| COc1cc2nc3n(c(=O)c2cc1OC)CCCCC3 | > 100 |  | > 100 µM |  | > 100 | > 100 µM | > 100 |  | > 100 µM |  | > 100 µM |  | > 100 µM | > 100 | > 100 |  |  |  |
| O=C1C=CC(=O)[C@H]2C3C=CC(C4C3C3(Cl)C(Cl)=C(Cl)[C@]4(Cl)C3(Cl)Cl)[C@@H]12 (stereo not given in full) | 17.4 |  | 18.6 µM |  | 9.28 | 16 µM | 13.4 |  | 19.1 µM |  | 20.4 µM |  | 23.1 µM | 16 | 27.3 |  |  |  |
| CC1(C)OC2[C@@H](CO[C@@]3([C@H]4OC(C)(C)O[C@@H]4CO)OC(C)(C)O[C@@H]23)O1 (stereo not given in full) | > 100 |  | > 100 µM |  | > 100 | > 100 µM | > 100 |  | > 100 µM |  | > 100 µM |  | > 100 µM | > 100 | > 100 |  |  |  |
| O=C1c2c(F)c(F)c(F)c(F)c2SC2=Nc3cccc4cccc(c34)N12 | 10.2 |  | 15.9 µM |  | 15.2 | 13.1 µM | 16 |  | 22.8 µM |  | 4.49 µM |  | 9.01 µM | 39.8 | 23.2 |  |  |  |
| CCOC(=O)CCC(C(=O)OCC)n1nnc2ccc(Nc3c(C)[n+]([O-])c4cc(F)c(OCC)cc4[n+]3[O-])cc21 (stereo not given) | > 100 |  |  |  | > 100 | > 100 µM | 68.6 |  | 83.5 µM |  | > 100 µM |  | > 100 µM | > 100 | > 100 |  |  |  |
| O=C1[C@H](O)[C@@H]2CCC[C@@]23CCCN13 | > 100 |  |  |  | > 100 | > 100 µM | > 100 |  | > 100 µM |  | > 100 µM |  | > 100 µM | > 100 | > 100 |  |  |  |
| O=C(CBr)NCCc1c[nH]c2ccccc12 | 6.96 |  | 11.3 µM |  | 1 | 3.24 µM | 4.72 |  | 3.19 µM |  | 8.41 µM |  | 0.458 µM |  | 7.31 |  |  |  |
| CC(C)(CO)NC(=O)c1cccs1 | > 100 |  | > 100 µM |  | > 100 | > 100 µM | > 100 |  | > 100 µM |  | > 100 µM |  | > 100 µM | > 100 | > 100 |  |  |  |

| Compound | TGI (NCI/ADR-RES ovarian) [µM] | GI50 (SK-MEL-28 melanoma) [µM] | TGI (SK-MEL-28 melanoma) | GI50 (SK-OV-3 ovarian) [µM] | TGI (SR leukemia) [µM] | TGI (M14 melanoma) | TGI (MCF7 breast) [µM] | GI50 (COLO 205 colon) [µM] | TGI (COLO 205 colon) | GI50 (K-562 leukemia) [µM] | TGI (K-562 leukemia) | GI50 (NCI-H522 lung) [µM] | TGI (NCI-H522 lung) | TGI (A549 NSCLC) [µM] | TGI (SK-OV-3 ovarian) [µM] | GI50 (SR leukemia) [µM] | GI50 (M14 melanoma) [µM] | GI50 (A549 NSCLC) [µM] |
| --- | --- | --- | --- | --- | --- | --- | --- | --- | --- | --- | --- | --- | --- | --- | --- | --- | --- | --- |
| COc1cc(C2c3cc4c(cc3OC(NNc3ccccc3)C2C)OCO4)cc(OC)c1O (stereo not given) | 11.1 |  | 21.3 µM |  | 29.7 | 13.3 µM | 13.3 |  | 17.9 µM |  | 12.4 µM |  | 12.1 µM | 13.3 | 22.7 |  |  |  |
| CC(=O)CC12NC(=O)N(C)N=C1N(C)C(=O)N(C)C2=O (stereo not given) | > 100 |  | > 100 µM |  | > 100 | > 100 µM | > 100 |  | > 100 µM |  | > 100 µM |  | > 100 µM | > 100 | > 100 |  |  |  |
| COc1ccccc1[C@@H]1CCC2CC[C@@H](c3ccccc3OC)[N+]21Cc1ccccc1 (stereo not given in full) | 32.3 |  | 22.3 µM |  | 7.07 | 12 µM | 12.2 |  | 1.84 µM |  | 12.7 µM |  | 11.5 µM | 13.1 | 11.7 |  |  |  |
| N#Cc1c(O)c(C=O)c(=O)n2c1[nH]c1ccccc12 | > 100 |  | > 100 µM |  | > 100 | > 100 µM | > 100 |  | > 100 µM |  | > 100 µM |  | > 100 µM | > 100 | > 100 |  |  |  |
| CCOC(=O)C(NC(=O)c1ccccc1)(Nc1ccc(S(=O)(=O)Nc2ccc(OC)nn2)cc1)C(F)(F)F (stereo not given) | > 100 |  | > 100 µM |  | > 100 | > 100 µM | > 100 |  | > 100 µM |  | > 100 µM |  | > 100 µM | > 100 | > 100 |  |  |  |
| O=[N+]([O-])c1ccc2c(N=Nc3ccc4ccccc4c3O)c(O)cc(S(=O)(=O)O)c2c1 | > 90.3 |  | > 100 µM |  | > 69.4 | 32.4 µM | > 100 |  | > 82.9 µM |  | > 95.1 µM |  | > 57.3 µM | > 100 | > 100 |  |  |  |
| CN(C)CCCN=c1c2ccccc2n(C)c2[nH]c(=O)n(C)c(=O)c12 | > 100 |  | 26.8 µM |  | 9.3 | 17.1 µM | 26.6 |  | 11.9 µM |  | > 52 µM |  | 9.34 µM | > 100 | 50.3 |  |  |  |
| CCOC(=O)[C@H](CO)Nc1c(O)c2c(c(O)c1Cl)C(=O)C=CC2=O | > 10 |  | > 10 µM |  | > 10 | > 10 µM | > 10 |  | > 10 µM |  | > 10 µM |  | > 10 µM | > 10 | > 10 |  |  |  |
| O=C(NCCC1CN(S(=O)(=O)C(F)(F)F)c2ccccc21)OCc1ccccc1 (stereo not given) | > 100 |  | > 100 µM |  | > 100 | > 100 µM | > 100 |  | > 100 µM |  | > 100 µM |  | > 100 µM | > 100 | > 100 |  |  |  |
| CCN(CCN(CC)C(=O)NC)C(=O)NC | > 100 |  | > 100 µM |  | > 100 | > 100 µM | > 100 |  | > 100 µM |  | > 100 µM |  | > 100 µM | > 100 | > 100 |  |  |  |
| COc1c(C)c(C/C=C(\C)CCCCO)c(OC)c2ccccc12 | > 100 |  |  |  | 55.6 | > 100 µM | > 100 |  | > 100 µM |  | 67.1 µM |  | 42.3 µM | > 100 | > 100 |  |  |  |
| COC(=O)C1=C(C)NC2=C(C(=O)c3ccccc32)C1c1cn[nH]c1-c1ccccc1 (stereo not given) | > 100 |  | > 100 µM |  | 87.4 | > 100 µM | > 100 |  | 52 µM |  | > 100 µM |  | > 100 µM | > 100 | > 100 |  |  |  |
| NCCN(CCN)/[N+]([O-])=N/O | > 100 |  | > 100 µM |  | > 100 | > 100 µM | > 100 |  | > 100 µM |  | > 100 µM |  | > 100 µM | > 100 | > 100 |  |  |  |
| CC(=O)OC12OC(C)(C3C(=O)N(c4ccccc4)C(=O)C31)N(c1ccccc1)C2=O (stereo not given) | > 100 |  | > 100 µM |  | > 100 | > 100 µM | > 100 |  | > 100 µM |  | > 100 µM |  | > 100 µM | > 100 | > 100 |  |  |  |
| COC(=O)CN(CC1O[C@@H]2OC(C)(C)O[C@@H]2C1NC(C)=O)C(=O)OCc1ccccc1 (stereo not given in full) | > 100 |  | > 100 µM |  | > 100 | > 100 µM | > 100 |  | > 100 µM |  | > 100 µM |  | > 100 µM | > 100 | > 100 |  |  |  |
